Results from patent publication US9695155B2, “Herbicidal substituted pyrimidinyloxy benzene compounds” (E. I. DU PONT DE NEMOURS AND COMPANY, priority 2013, dated 2017).

What was measured:
johnsongrass = assay: Test C postemergence; type: in vivo, Sorghum halepense
Procedure, shortened: (§1)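 Preemergence: seeds sown in a loam soil–sand blend and sprayed with test chemical in a non-phytotoxic solvent mixture containing surfactant. Postemergence: plants at 2 to 18 cm (1- to 4-leaf stage) in peat-based medium, treated with the same formulation. Greenhouse 13 to 15 days, then visual rating 0 (no effect) to 100 (complete control).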

pigweed = assay: Test C postemergence; type: in vivo, Amaranthus retroflexus
Procedure, shortened: as §1

galium = assay: Test C postemergence; type: in vivo, Galium aparine
Procedure, shortened: as §1

corn = assay: Test A postemergence; type: in vivo, Zea mays
Procedure, shortened: (§2)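 Injury scores run from 0, no effect, to 100, complete control, judged by eye against untreated plants roughly 10 days after treatment. Chemicals carried a surfactant in a non-phytotoxic solvent and went onto loam–sand soil preemergence or onto one- to two-leaf seedlings postemergence.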

ragweed = assay: Test C postemergence; type: in vivo, Ambrosia elatior
Procedure, shortened: as §1

soybean = assay: Test C postemergence; type: in vivo, Glycine max
Procedure, shortened: as §1

blackgrass = assay: Test C postemergence; type: in vivo, Alopecurus myosuroides
Procedure, shortened: as §1

waterhemp = assay: Test C postemergence; type: in vivo, Amaranthus rudis
Procedure, shortened: as §1

giant foxtail = assay: Test A preemergence; type: in vivo, Setaria faberii
Procedure, shortened: as §2

wheat, winter = assay: Test C postemergence; type: in vivo, Triticum aestivum
Procedure, shortened: as §1

velvetleaf = assay: Test C postemergence; type: in vivo, Abutilon theophrasti
Procedure, shortened: as §1

oilseed rape = assay: Test C postemergence; type: in vivo, Brassica napus
Procedure, shortened: as §1

kochia = assay: Test C postemergence; type: in vivo, Kochia scoparia
Procedure, shortened: as §1

[1] = 16 g ai/ha, postemergence, 0 is no effect, 100 is complete control
[2] = 31 g ai/ha, postemergence, visual rating, scale 0 to 100 (0 no effect, 100 complete control), 13 to 15 days
[3] = 125 g ai/ha, postemergence, visual rating, scale 0 to 100 (0 no effect, 100 complete control)
[4] = Postemergence, 62 g ai/ha, scale 0 to 100 (0 no effect, 100 complete control), 13 to 15 days

## Fc1cccc(Oc2ncc(Cl)cn2)c1-n1cc(C(F)F)nn1 [Compound 141, 5-chloro-2-[2-[4-(difluoromethyl)-1H-1,2,3-triazol-1-yl]-3-fluorophenoxy]pyrimidine]
johnsongrass; Sorghum halepense, post-emergence, 16 g ai/ha, postemergence, 0 is no effect, 100 is complete control, read-out: Plant response rating (0 to 100), Johnsongrass
  pest or weed control at 16 g/ha: 5%
johnsongrass; Sorghum halepense, post-emergence, 125 g ai/ha, postemergence, visual rating, scale 0 to 100 (0 no effect, 100 complete control), read-out: Plant response rating, Johnsongrass
  pest or weed control at 125 g/ha: 30%
johnsongrass; Sorghum halepense, post-emergence, Postemergence, 62 g ai/ha, scale 0 to 100 (0 no effect, 100 complete control), read-out: Plant response rating, Johnsongrass
  pest or weed control at 62 g/ha: 10%
pigweed; Amaranthus retroflexus, post-emergence, 16 g ai/ha, postemergence, 0 is no effect, 100 is complete control, read-out: Plant response rating (0 to 100), Pigweed
  pest or weed control at 16 g/ha: 90%
pigweed; Amaranthus retroflexus, post-emergence, 125 g ai/ha, postemergence, visual rating, scale 0 to 100 (0 no effect, 100 complete control), read-out: Plant response rating, Pigweed
  pest or weed control at 125 g/ha: 98%
pigweed; Amaranthus retroflexus, post-emergence, Postemergence, 62 g ai/ha, scale 0 to 100 (0 no effect, 100 complete control), read-out: Plant response rating, Pigweed
  pest or weed control at 62 g/ha: 100%
galium; Galium, post-emergence, 16 g ai/ha, postemergence, 0 is no effect, 100 is complete control, read-out: Plant response rating (0 to 100), Galium
  pest or weed control at 16 g/ha: 90%
galium; Galium, post-emergence, 125 g ai/ha, postemergence, visual rating, scale 0 to 100 (0 no effect, 100 complete control), read-out: Plant response rating, Galium
  pest or weed control at 125 g/ha: 100%
galium; Galium, post-emergence, Postemergence, 62 g ai/ha, scale 0 to 100 (0 no effect, 100 complete control), read-out: Plant response rating, Galium
  pest or weed control at 62 g/ha: 98%
corn; Zea mays, post-emergence, 240 h, 31 g ai/ha, 0 to 100 scale, 0 no effect, 100 complete control
  Corn plant response rating (crop injury, 0 = no effect, 100 = complete kill) at 31 g/ha: 30%
corn; Zea mays, post-emergence, 240 h, 125 g ai/ha, 0 to 100 scale where 0 is no effect and 100 is complete control, read-out: Corn plant response rating
  plant injury at 125 g/ha: 60%
ragweed; Ambrosia artemisiifolia, post-emergence, 16 g ai/ha, postemergence, 0 is no effect, 100 is complete control, read-out: Plant response rating (0 to 100), Ragweed
  pest or weed control at 16 g/ha: 80%
ragweed; Ambrosia artemisiifolia, post-emergence, 125 g ai/ha, postemergence, visual rating, scale 0 to 100 (0 no effect, 100 complete control), read-out: Plant response rating, Ragweed
  pest or weed control at 125 g/ha: 90%
ragweed; Ambrosia artemisiifolia, post-emergence, Postemergence, 62 g ai/ha, scale 0 to 100 (0 no effect, 100 complete control), read-out: Plant response rating, Ragweed
  pest or weed control at 62 g/ha: 98%
soybean; Glycine max, post-emergence, 16 g ai/ha, postemergence, 0 is no effect, 100 is complete control
  Soybean plant response rating (crop injury, 0-100 scale) at 16 g/ha: 85%
soybean; Glycine max, post-emergence, 125 g ai/ha, postemergence, visual rating, scale 0 to 100 (0 no effect, 100 complete control), read-out: Plant response rating, Soybean
  Soybean plant response rating (crop injury, 0-100 scale) at 125 g/ha: 95%
soybean; Glycine max, post-emergence, Postemergence, 62 g ai/ha, scale 0 to 100 (0 no effect, 100 complete control)
  Soybean plant response rating (crop injury, 0-100 scale) at 62 g/ha: 90%
blackgrass; Alopecurus myosuroides, post-emergence, 16 g ai/ha, postemergence, 0 is no effect, 100 is complete control, read-out: Plant response rating (0 to 100), Blackgrass
  pest or weed control at 16 g/ha: 5%
blackgrass; Alopecurus myosuroides, post-emergence, 125 g ai/ha, postemergence, visual rating, scale 0 to 100 (0 no effect, 100 complete control), read-out: Plant response rating, Blackgrass
  pest or weed control at 125 g/ha: 60%
blackgrass; Alopecurus myosuroides, post-emergence, Postemergence, 31 g ai/ha, scale 0 to 100 (0 no effect, 100 complete control), 13 to 15 days, read-out: Plant response rating, Blackgrass
  pest or weed control at 31 g/ha: 35%
blackgrass; Alopecurus myosuroides, post-emergence, Postemergence, 62 g ai/ha, scale 0 to 100 (0 no effect, 100 complete control), read-out: Plant response rating, Blackgrass
  pest or weed control at 62 g/ha: 35%
waterhemp; Amaranthus tuberculatus, post-emergence, 16 g ai/ha, postemergence, 0 is no effect, 100 is complete control, read-out: Plant response rating (0 to 100), Waterhemp
  pest or weed control at 16 g/ha: 85%
waterhemp; Amaranthus tuberculatus, post-emergence, 125 g ai/ha, postemergence, visual rating, scale 0 to 100 (0 no effect, 100 complete control), read-out: Plant response rating, Waterhemp
  pest or weed control at 125 g/ha: 100%
waterhemp; Amaranthus tuberculatus, post-emergence, Postemergence, 62 g ai/ha, scale 0 to 100 (0 no effect, 100 complete control), read-out: Plant response rating, Waterhemp
  pest or weed control at 62 g/ha: 100%
Giant foxtail; Setaria faberi, pre-emergence, 240 h, 31 g ai/ha, 0 to 100 scale where 0 is no effect and 100 is complete control, visual, approximately 10 days, read-out: Plant response rating, Foxtail, Giant
  pest or weed control at 31 g/ha: 100%
Giant foxtail; Setaria faberi, pre-emergence, 240 h, 125 g ai/ha, 0 to 100 scale where 0 is no effect and 100 is complete control, read-out: Plant response rating, Foxtail, Giant
  pest or weed control at 125 g/ha: 100%
wheat, winter; Triticum aestivum, post-emergence, 16 g ai/ha, postemergence, 0 is no effect, 100 is complete control, read-out: Plant response rating (0 to 100), Wheat
  plant injury at 16 g/ha: 0%
wheat, winter; Triticum aestivum, post-emergence, 125 g ai/ha, postemergence, visual rating, scale 0 to 100 (0 no effect, 100 complete control), read-out: Plant response rating, Wheat
  plant injury at 125 g/ha: 25%
wheat, winter; Triticum aestivum, post-emergence, Postemergence, 62 g ai/ha, scale 0 to 100 (0 no effect, 100 complete control), read-out: Plant response rating, Wheat
  plant injury at 62 g/ha: 5%
velvetleaf; Abutilon theophrasti, post-emergence, 16 g ai/ha, postemergence, 0 is no effect, 100 is complete control, read-out: Plant response rating (0 to 100), Velvetleaf
  pest or weed control at 16 g/ha: 80%
velvetleaf; Abutilon theophrasti, post-emergence, 125 g ai/ha, postemergence, visual rating, scale 0 to 100 (0 no effect, 100 complete control), read-out: Plant response rating, Velvetleaf
  pest or weed control at 125 g/ha: 100%
velvetleaf; Abutilon theophrasti, post-emergence, Postemergence, 62 g ai/ha, scale 0 to 100 (0 no effect, 100 complete control), read-out: Plant response rating, Velvetleaf
  pest or weed control at 62 g/ha: 100%
Oilseed rape; Brassica napus, post-emergence, 16 g ai/ha, postemergence, 0 is no effect, 100 is complete control, read-out: Plant response rating (0 to 100), Oilseed Rape
  plant injury at 16 g/ha: 50%
Oilseed rape; Brassica napus, post-emergence, 125 g ai/ha, postemergence, visual rating, scale 0 to 100 (0 no effect, 100 complete control), read-out: Plant response rating, Oilseed Rape
  plant injury at 125 g/ha: 98%
Oilseed rape; Brassica napus, post-emergence, Postemergence, 62 g ai/ha, scale 0 to 100 (0 no effect, 100 complete control), read-out: Plant response rating, Oilseed Rape
  plant injury at 62 g/ha: 95%
kochia; Bassia scoparia, post-emergence, 16 g ai/ha, postemergence, 0 is no effect, 100 is complete control, read-out: Plant response rating (0 to 100), Kochia
  pest or weed control at 16 g/ha: 100%
kochia; Bassia scoparia, post-emergence, 125 g ai/ha, postemergence, visual rating, scale 0 to 100 (0 no effect, 100 complete control), read-out: Plant response rating, Kochia
  pest or weed control at 125 g/ha: 100%
kochia; Bassia scoparia, post-emergence, Postemergence, 62 g ai/ha, scale 0 to 100 (0 no effect, 100 complete control), read-out: Plant response rating, Kochia
  pest or weed control at 62 g/ha: 100%

## FC(F)Oc1cnn(-c2c(Cl)cccc2Oc2ncc(Cl)cn2)c1 [Compound 258]
johnsongrass; [1]
  Plant response rating (0 to 100), Johnsongrass: 0
johnsongrass; [2]
  Johnsongrass plant response rating: 5
johnsongrass; [3]
  Plant response rating, Johnsongrass: 5
johnsongrass; [4]
  Plant response rating, Johnsongrass: 5
pigweed; [1]
  Plant response rating (0 to 100), Pigweed: 75
pigweed; [2]
  Pigweed plant response rating: 85
pigweed; [3]
  Plant response rating, Pigweed: 90
pigweed; [4]
  Plant response rating, Pigweed: 85
galium; [1]
  Plant response rating (0 to 100), Galium: 85
galium; [2]
  Galium plant response rating: 90
galium; [3]
  Plant response rating, Galium: 100
galium; [4]
  Plant response rating, Galium: 95
corn; 31 g ai/ha, 0 to 100 scale, 0 no effect, 100 complete control
  Plant response rating, Corn: 10
corn; 125 g ai/ha, 0 to 100 scale, 0 no effect, 100 complete control
  Plant response rating, Corn: 40
ragweed; [1]
  Plant response rating (0 to 100), Ragweed: 25
ragweed; [2]
  Ragweed plant response rating: 50
ragweed; [3]
  Plant response rating, Ragweed: 75
ragweed; [4]
  Plant response rating, Ragweed: 50
soybean; [1]
  Plant response rating (0 to 100), Soybean: 50
soybean; [2]
  Soybean plant response rating: 75
soybean; [3]
  Plant response rating, Soybean: 95
soybean; [4]
  Plant response rating, Soybean: 70
blackgrass; [1]
  Plant response rating (0 to 100), Blackgrass: 0
blackgrass; [2]
  Blackgrass plant response rating: 5
blackgrass; [3]
  Plant response rating, Blackgrass: 10
blackgrass; [4]
  Plant response rating, Blackgrass: 5
waterhemp; [1]
  Plant response rating (0 to 100), Waterhemp: 65
waterhemp; [2]
  Waterhemp plant response rating: 70
waterhemp; [3]
  Plant response rating, Waterhemp: 90
waterhemp; [4]
  Plant response rating, Waterhemp: 80
Giant foxtail; 31 g ai/ha, 0 to 100 scale where 0 is no effect and 100 is complete control, visual, approximately 10 days
  Plant response rating, Foxtail, Giant: 60
Giant foxtail; 125 g ai/ha
  Foxtail, Giant plant response rating (0 to 100 scale): 100
wheat, winter; [1]
  Plant response rating (0 to 100), Wheat: 0
wheat, winter; [2]
  Wheat plant response rating: 0
wheat, winter; [3]
  Plant response rating, Wheat: 5
wheat, winter; [4]
  Plant response rating, Wheat: 5
velvetleaf; [1]
  Plant response rating (0 to 100), Velvetleaf: 55
velvetleaf; [2]
  Velvetleaf plant response rating: 65
velvetleaf; [3]
  Plant response rating, Velvetleaf: 80
velvetleaf; [4]
  Plant response rating, Velvetleaf: 75
Oilseed rape; [1]
  Plant response rating (0 to 100), Oilseed Rape: 70
Oilseed rape; [2]
  Oilseed Rape plant response rating: 85
Oilseed rape; [3]
  Plant response rating, Oilseed Rape: 98
Oilseed rape; [4]
  Plant response rating, Oilseed Rape: 95
kochia; [1]
  Plant response rating (0 to 100), Kochia: 90
kochia; [2]
  Kochia plant response rating: 95
kochia; [3]
  Plant response rating, Kochia: 100
kochia; [4]
  Plant response rating, Kochia: 100
